Test results published in patent US20220177476A1, “Crystal Forms of (S)-4-(8-amino-3-(1-(but-2-ynoyl)-pyrrolidin-2-yl)imidazo[1,5-a]pyrazin-1-yl)-n-(pyridin-2-yl)benzamide” (Acerta Pharma B.V., priority 2015, published 2022).
Read-outs that look alike come from different tables or passages of the source.

What was measured:
Type in all cases: physicochemical
[1] = Aqueous solubility of salts after three hours equilibration without pH adjustment; conditions: thermodynamic from solid, water
Description: Characterization of fumarate salt, maleate salt, phosphate salt and L-tartrate salt was conducted using ^1H NMR spectroscopy, TG-FTIR, DSC, dynamic vapor sorption, optical microscopy, high-performance liquid chromatography (HPLC) purity, laser diffraction, approximate bulk and tapped density, and aqueous solubility analytical techniques.

[2] = Aqueous solubility of Formula (1) free base as a function of pH
From the text: The aqueous solubility of Formula (1) free base was examined as a function of pH.

[3] = pKa by ultraviolet (UV) spectrometric titration; conditions: for pKa: aqueous solution
Description: The pKa values for Formula (1) free base were determined and used to create the speciation plot shown in FIG. 47 to illustrate the species present as the Formula (1) passes through the gastrointestinal tract. The sample pKa values were determined using an ultraviolet (UV) spectrometric technique. The sample was initially titrated in a fast-UV triple titration between pH 2-12 at concentrations of 31-19 μM, under aqueous conditions. Three pKa values, with average values of ˜3.6, ˜5.8 and ˜12.0, were determined. The sample was subsequently titrated in six titrations, under aqueous conditions over a total range of pH 1.5-12.5 at concentrations of 30-18 μM.

[4] = logP by potentiometric (pH-metric) technique, octanol/water; conditions: 25° C., 0.15 M KCl
Description: The logP of Formula (1) free base was determined using the potentiometric (pH-metric) technique. The sample was titrated in various ratios of octanol/water from pH 1.9-12.1 at concentrations of 1.1-0.5 mM at 25° C. in an ionic environment of 0.15 M KCl. The potentiometric data collected were used to calculate the logP of the neutral (2.03±0.01) and the cationic (−0.31±0.06) species.

[5] = Water content by Karl Fischer titration
[6] = six titrations, pH 1.5-12.5, 30-18 μM, aqueous

| Compound | solubility at 3 h [1] | solubility ([2]; aqueous HCl solution, pH 1, simulated gastric fluid, thermodynamic from solid, HCl solution having a pH of about 1, read-out: solubility in HCl solution) | solubility ([2]; aqueous buffer solution, pH 5, aqueous buffer, thermodynamic from solid, effective pH at the end of the test 5.0, read-out: Solubility) | solubility ([2]; aqueous buffer solution, pH 7.3, aqueous buffer, thermodynamic from solid, effective pH at the end of the test 7.3, read-out: Solubility) | solubility ([2]; aqueous buffer solution, pH 8.9, aqueous buffer, thermodynamic from solid, effective pH at the end of the test 8.9, read-out: Solubility) | solubility ([2]; aqueous buffer solutions, aqueous buffer, thermodynamic from solid, pH 6.7 and greater, read-out: aqueous solubility, constant level) | solubility ([2]; effective pH at the end of the test 6.7) | aqueous solubility, constant level ([2]; pH 6.7 and greater) | pKa ([3]; free base, Table 9, read-out: pKa) | pKa ([3]; pH 1.5, six titrations, pH 1.5-12.5, 30-18 μM, aqueous, read-out: pKa, average value (third)) | pKa ([3]; pH 2, fast-UV triple titration, pH 2-12, 31-19 μM, aqueous, read-out: pKa, average value (first)) | pKa ([3]; pH 2, fast-UV triple titration, pH 2-12, 31-19 μM, aqueous, read-out: pKa, average value (second)) | pKa ([3]; pH 2, fast-UV triple titration, pH 2-12, 31-19 μM, aqueous, read-out: pKa, average value (third)) | pKa, average value (first) [3, 6] | pKa, average value (second) [3, 6] | logP of the neutral species [4] | logP ([4]; read-out: logP of the cationic species) | water content (% found, experimental) [5] |
| --- | --- | --- | --- | --- | --- | --- | --- | --- | --- | --- | --- | --- | --- | --- | --- | --- | --- | --- |
| CC#CC(=O)N1CCC[C@H]1c1nc(-c2ccc(C(=O)Nc3ccccn3)cc2)c2c(N)nccn12 [Formula (1), (S)-4-(8-amino-3-(1-(but-2-ynoyl)pyrrolidin-2-yl)imidazo[1,5-α]pyrazin-1-yl)-N-(pyridin-2-yl)benzamide] | < 1000 µg/mL | ≥ 150000 µg/mL | 690 µg/mL | 49 µg/mL | 51 µg/mL | ~50 µg/mL | 56 µg/mL | about 50 μg/mL | ~5.7 | 12.12 ± 0.03 | ~3.6 | ~5.8 | ~12 | 3.54±0.01 | 5.77±0.01 | 2.03±0.01 | -0.31 ± 0.06 | – |
| CC#CC(=O)N1CCC[C@H]1c1nc(-c2ccc(C(=O)Nc3ccccn3)cc2)c2c(N)nccn12.O=S(=O)(O)O [sulfate salt, (S)-4-(8-amino-3-(1-(but-2-ynoyl)pyrrolidin-2-yl)imidazo[1,5-α]pyrazin-1-yl)-N-(pyridin-2-yl)benzamide sulfate] | – | – | – | – | – | – | – | – | – | – | – | – | – | – | – | – | – | 10.6% |
